Measured values as given in US20250367269A1, “KYNURENINE AMINOTRANSFERASE AND PRODUCTS THEREOF FOR THE TREATMENT OF ARTHRITIC DISEASES” (Institut National de Recherche Pour L'Agriculture, …, priority 2022, published 2025).

Test system: collagen-antibody induced arthritis
Assay: collagen-antibody induced arthritis model
Type: in vivo, C57BL6J male mice
Details: administration in collagen-antibody induced arthritis mouse model; summary statement, no details
Method: C57BL6J male mice were injected intraperitoneally with a cocktail of arthritogenic anti-type II collagen (2 mg/mouse) at day 0. At day 3, mice received an injection of lipopolysaccharide from bacterial cells walls of E. coli 055: B5. The severity of arthritis was evaluated every other day on each paw with a score from 0 to 4, for a maximal score of 16 by animal (0=normal joint, 1=moderate redness and slight swelling or swelling of one or two digits, 2=moderate redness and moderate paw swelling or swelling more than three digits, 3=redness and swelling from tarsal joints to metatarsal joints, 4=severe redness and severe swelling of the entire paw). Hindpaw swelling was measured at the same time by plethysmography. Paw volume determined prior to disease induction was used as the baseline. The development of arthritis was analyzed by histological assessment. Hindpaws were dissected then fixed in 4% formalin (Labonord). Hindpaws were further decalcified in 10% EDTA for 1 month and embedded in paraffin blocks. Five μm-thick tissue sections were cut and two stainings were performed, hematoxylin, eosin and toluidine blue. Histological examination was carried out blindly by three independent observers. Synovium from ankle joint was graded on a scale of 0 to 3 (with 0=normal and 3=major changes) for synovial hyperplasia (width of lining layer) and tissue cell infiltration. […]

For `O=C(O)c1cc(O)c2cccc(O)c2n1` [xanthurenic acid], the arthritis severity was “reduces arthritis severity”.
